US20220378923A1, “BET DEGRADER” (KYOWA KIRIN CO., LTD., priority 2019, published 2022)

Columns and labels:
Assay type in all cases: cell-based
Conditions in all cases: SU-DHL-4 cells, test compound 100 nmol/L, 24 hours
BRD4 = target: T1, BRD4 (Homo sapiens, UniProt O60885); assay: Evaluation of BET proteolysis in SU-DHL-4 cell line by Western blotting: BRD4 (Test Example 4)
T1 construct: Changes in the amount of BRD4, BRD2 and BRD3 proteins in the SU-DHL-4 cell line; endogenous in cells; host or cells: SU-DHL-4
Procedure: (§1) The human DLBCL cell line SU-DHL-4 was purchased from DSMZ. SU-DHL-4 was passaged using RPMI1640 medium containing 10 vol % FBS. The culture conditions were 37° C. and 5% CO2.
Anti-BRD4 antibody: BRD4 (E2A7X) Rabbit mAb (Cell Signaling Technology, Cat No. #13440S)
(§2) Changes in the amount of BRD4, BRD2 and BRD3 proteins in the SU-DHL-4 cell line by the test compound (compound 1b, compound 1l or compound P3) were detected by WB. The compound P3 is a compound described as example 14 in the known Patent Document 2 (WO 2015/081284), which was synthesized according to the method described in Patent Document 2 and used in this test.
(§3) The cultured SU-DHL-4 cells were seeded at 6×10^5 cells/well in a transparent 6-well plate (Code No. 140675, Thermo Fisher Scientific). After seeding, the cells were pre-cultured at 37° C. in a carbon dioxide gas incubator for 18 to 25 hours. Next, a 0.1 mmol/L DMSO solution of the test compound was prepared, diluted so that the concentration was 200-fold of the final concentration in RPMI1640 medium containing the above FBS and PS, and 1/200 volume of the diluted solution was added to each well. At this time, the final concentration of DMSO was adjusted to be 0.1 vol %. After adding the test compound, the cells were cultured at 37° C. in a carbon dioxide gas incubator for 24 hours.
(§4) After collecting the cells, the supernatant was aspirated, and Lysis buffer 6 (R&D systems, Cat No. 895561) was added to the pellet at 0.1 mL/sample. After incubating on ice for 60 minutes, the supernatant was collected by centrifugation at 15000 rpm for 10 minutes at 4° C.
(§5) Using Pierce BCA Protein Assay Kit (Thermo Fisher, Cat No. 23225), the protein concentration of each sample was quantified according to the manual attached to the kit, and then was diluted and prepared with Lane Marker Reducing Sample Buffer (5×) (Thermo Fisher, Cat No. 39000) and Lysis buffer 6 to 1 mg/mL. The cells were incubated at 95° C. for 5 minutes to prepare WB samples. WB samples were stored at −30° C. until electrophoresis.
(§6) The WB sample was thawed and used after vortex mixing and spin down. […]

BRD2 = target: T2, BRD2 (Homo sapiens, UniProt P25440); assay: Evaluation of BET proteolysis in SU-DHL-4 cell line by Western blotting: BRD2 (Test Example 4)
T2 construct: Changes in the amount of BRD4, BRD2 and BRD3 proteins in the SU-DHL-4 cell line; endogenous in cells; host or cells: SU-DHL-4
T2 sequence (P25440 whole entry): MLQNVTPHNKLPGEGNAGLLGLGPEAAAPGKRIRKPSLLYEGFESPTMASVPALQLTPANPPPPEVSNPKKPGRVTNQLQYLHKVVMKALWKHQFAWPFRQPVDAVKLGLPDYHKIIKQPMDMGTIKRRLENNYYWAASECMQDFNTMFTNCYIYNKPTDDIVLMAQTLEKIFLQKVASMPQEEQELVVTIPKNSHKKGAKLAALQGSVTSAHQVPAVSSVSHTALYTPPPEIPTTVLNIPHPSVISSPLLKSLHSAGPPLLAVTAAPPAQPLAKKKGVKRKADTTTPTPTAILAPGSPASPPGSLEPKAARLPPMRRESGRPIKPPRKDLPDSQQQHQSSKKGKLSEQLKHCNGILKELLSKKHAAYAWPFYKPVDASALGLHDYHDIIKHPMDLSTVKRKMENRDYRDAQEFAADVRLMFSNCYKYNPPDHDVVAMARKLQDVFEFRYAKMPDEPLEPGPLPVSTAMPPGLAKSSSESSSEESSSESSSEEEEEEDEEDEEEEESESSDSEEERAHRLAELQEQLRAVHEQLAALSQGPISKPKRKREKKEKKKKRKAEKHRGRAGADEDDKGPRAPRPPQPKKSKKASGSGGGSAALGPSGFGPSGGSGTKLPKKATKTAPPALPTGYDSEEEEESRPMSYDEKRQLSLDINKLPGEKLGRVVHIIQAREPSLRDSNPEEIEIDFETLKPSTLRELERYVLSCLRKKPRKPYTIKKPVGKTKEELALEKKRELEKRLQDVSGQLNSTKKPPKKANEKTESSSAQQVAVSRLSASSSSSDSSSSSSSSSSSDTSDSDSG
Procedure: as §1
Anti-BRD2 antibody: Brd2 (D8964) Rabbit mAb (Cell Signaling Technology, Cat No. #5848S)
as §2, §3, §4, §5, §6

BRD3 = target: T3, BRD3 (Homo sapiens, UniProt Q15059); assay: Evaluation of BET proteolysis in SU-DHL-4 cell line by Western blotting: BRD3 (Test Example 4)
T3 construct: Changes in the amount of BRD4, BRD2 and BRD3 proteins in the SU-DHL-4 cell line; endogenous in cells; host or cells: SU-DHL-4
T3 sequence (Q15059 whole entry): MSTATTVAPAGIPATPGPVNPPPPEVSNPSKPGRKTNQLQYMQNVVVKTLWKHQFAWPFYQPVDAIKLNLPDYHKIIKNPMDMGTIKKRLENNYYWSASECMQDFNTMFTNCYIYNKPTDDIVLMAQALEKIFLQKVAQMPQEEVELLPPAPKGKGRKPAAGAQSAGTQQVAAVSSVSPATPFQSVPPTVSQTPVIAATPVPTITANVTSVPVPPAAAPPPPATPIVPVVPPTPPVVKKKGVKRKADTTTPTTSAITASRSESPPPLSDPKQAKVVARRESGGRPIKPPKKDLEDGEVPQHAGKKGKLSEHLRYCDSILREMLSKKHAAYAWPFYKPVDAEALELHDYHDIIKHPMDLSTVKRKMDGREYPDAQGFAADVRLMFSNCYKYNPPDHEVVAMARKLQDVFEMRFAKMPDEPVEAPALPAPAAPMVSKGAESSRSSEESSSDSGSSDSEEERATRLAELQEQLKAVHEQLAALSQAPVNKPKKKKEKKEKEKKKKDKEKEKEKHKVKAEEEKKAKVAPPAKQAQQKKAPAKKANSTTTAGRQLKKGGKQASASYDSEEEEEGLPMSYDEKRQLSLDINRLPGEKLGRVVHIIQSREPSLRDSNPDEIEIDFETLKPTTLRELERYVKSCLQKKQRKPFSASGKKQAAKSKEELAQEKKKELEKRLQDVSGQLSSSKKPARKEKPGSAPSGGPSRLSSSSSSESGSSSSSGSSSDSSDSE
Procedure: as §1
Anti-BRD3 antibody: Anti-BRD3 antibody (2088C3a) (Santa Cruz Biotechnology, Cat No. sc-81202)
as §2, §3, §4, §5, §6

Row | SMILES | change in amount of BRD4 protein (band in Western blotting, FIG. 1) (BRD4) | change in amount of BRD2 protein (band in Western blotting, FIG. 1) (BRD2) | change in amount of BRD3 protein (band in Western blotting, FIG. 1) (BRD3)
1 | Cc1sc2c(c1C)C(c1ccc(C(=O)NCCCNC(=O)c3ccc(C4=N[C@@H](CC(=O)OC(C)(C)C)c5nnc(C)n5-c5sc(C)c(C)c54)cc3)cc1)=N[C@@H](CC(=O)OC(C)(C)C)c1nnc(C)n1-2 [Compound 1b, Di-tert-butyl 2,2′-[(6S,6′S)-({[propane-1,3-diylbis(azanediyl)]bis(carbonyl)}bis(4,1-phenylene))bis(2,3,9-trimethyl-6H-thieno[3,2-f][1,2,4]triazolo[4,3-a][1,4]diazepine-4,6-diyl)]diacetate] | the band became faint compared with that of control | the band became faint compared with that of control | the band became faint compared with that of control
2 | CCC(=O)N1c2ccccc2[C@H](Nc2ccc(C(=O)NCC(=O)CNC(=O)c3ccc(N[C@@H]4C[C@H](C)N(C(=O)CC)c5ccccc54)cc3)cc2)C[C@@H]1C [Compound 1l, N,N′-(2-Oxopropane-1,3-diyl)bis(4-{[(2S,4R)-2-methyl-1-propionyl-1,2,3,4-tetrahydroquinolin-4-yl]amino}benzamide)] | the band became faint compared with that of control | the band became faint compared with that of control | the band became faint compared with that of control
